Experimental data reported in ChEMBL document CHEMBL3885861, “Open TG-GATES”.

Organism: Rattus norvegicus
Test: Open TG-GATES - Regimen: Single
Format: toxicity, organism-based, Sprague-Dawley
Design: regimen Single, gender Male, age 6 weeks
Settings: in vivo, po, 30 mg/kg, route gavage, dose level High; for APTT / Bas / Eos / Fbg / Hb / Ht / Lym / MCH / MCHC / MCV / Mono / Neu / PT / Plat / RBC / Ret / WBC: tissue Blood; for KIDNEY_L / KIDNEY_R / KIDNEY_TOTAL: tissue Kidney; for LIVER: tissue Liver; for A/G / ALP / ALT / AST / BUN / CRE / Ca / Cl / DBIL / GLC / IP / K / LDH / Na / PL / RALB / TBIL / TC / TG / TP / gamma-GTP: tissue Plasma

Structure (SMILES): C=CCO [ALLYL ALCOHOL]
- TERMINAL_BW (3 h): 222.7 g
- APTT (3 h): 19.6 s
- Bas (3 h): 0%
- Eos (3 h): 1%
- Fbg (3 h): 211.6 mg/dL
- Hb (3 h): 13.4 g/dL
- Ht (3 h): 38.7%
- Lym (3 h): 75%
- MCH (3 h): 21.7 pg
- MCHC (3 h): 34.8%
- MCV (3 h): 62.3 fL
- Mono (3 h): 3%
- Neu (3 h): 20.4%
- PT (3 h): 12.4 s
- Plat (3 h): 134.6 x10_4/uL
- RBC (3 h): 622.4 x10_4/ul
- Ret (3 h): 7.4%
- WBC (3 h): 88.9 x10_2/uL
- KIDNEY_L (3 h): 1 g
- KIDNEY_R (3 h): 1 g
- KIDNEY_TOTAL (3 h): 1.9 g
- LIVER (3 h): 10.3 g
- A/G (3 h): 1.5
- ALP (3 h): 976.6 IU/L
- ALT (3 h): 42.8 IU/L
- AST (3 h): 77.2 IU/L
- BUN (3 h): 12 mg/dL
- CRE (3 h): 0.3 mg/dL
- Ca (3 h): 11 mg/dL
- Cl (3 h): 101.6 meq/L
- DBIL (3 h): 0.5 mg/dL
- GLC (3 h): 202.2 mg/dL
- IP (3 h): 8.9 mg/dL
- K (3 h): 3.7 meq/L
- LDH (3 h): 233.4 IU/L
- Na (3 h): 140.8 meq/L
- PL (3 h): 177 mg/dL
- RALB (3 h): 3.4 g/dL
- TBIL (3 h): 0.6 mg/dL
- TC (3 h): 80 mg/dL
- TG (3 h): 255 mg/dL
- TP (3 h): 5.6 g/dL
- gamma-GTP (3 h): 1.2 IU/L
- TERMINAL_BW (6 h): 220.4 g
- APTT (6 h): 19.3 s
- Bas (6 h): 0%
- Eos (6 h): 1%
- Fbg (6 h): 217 mg/dL
- Hb (6 h): 13.5 g/dL
- Ht (6 h): 39.5%
- Lym (6 h): 67%
- MCH (6 h): 20.5 pg
- MCHC (6 h): 34%
- MCV (6 h): 60.2 fL
- Mono (6 h): 5.2%
- Neu (6 h): 25.8%
- PT (6 h): 12.4 s
- Plat (6 h): 129.3 x10_4/uL
- RBC (6 h): 658 x10_4/ul
- Ret (6 h): 7.1%
- WBC (6 h): 127.5 x10_2/uL
- KIDNEY_L (6 h): 0.9 g
- KIDNEY_R (6 h): 0.9 g
- KIDNEY_TOTAL (6 h): 1.9 g
- LIVER (6 h): 9.4 g
- A/G (6 h): 1.4
- ALP (6 h): 1023.4 IU/L
- ALT (6 h): 101.2 IU/L
- AST (6 h): 168.4 IU/L
- BUN (6 h): 10.2 mg/dL
- CRE (6 h): 0.4 mg/dL
- Ca (6 h): 10.5 mg/dL
- Cl (6 h): 102.4 meq/L
- DBIL (6 h): 0.1 mg/dL
- GLC (6 h): 198.4 mg/dL
- IP (6 h): 9.2 mg/dL
- K (6 h): 3.8 meq/L
- LDH (6 h): 564.8 IU/L
- Na (6 h): 140.6 meq/L
- PL (6 h): 168 mg/dL
- RALB (6 h): 3.1 g/dL
- TBIL (6 h): 0.2 mg/dL
- TC (6 h): 85.4 mg/dL
- TG (6 h): 97.6 mg/dL
- TP (6 h): 5.3 g/dL
- gamma-GTP (6 h): 2 IU/L
- TERMINAL_BW (9 h): 216.4 g
- APTT (9 h): 18.7 s
- Bas (9 h): 0%
- Eos (9 h): 1%
- Fbg (9 h): 222.2 mg/dL
- Hb (9 h): 13.2 g/dL
- Ht (9 h): 38.8%
- Lym (9 h): 66.8%
- MCH (9 h): 21.3 pg
- MCHC (9 h): 34.1%
- MCV (9 h): 62.5 fL
- Mono (9 h): 3.2%
- Neu (9 h): 28.6%
- PT (9 h): 12.4 s
- Plat (9 h): 129.2 x10_4/uL
- RBC (9 h): 620.6 x10_4/ul
- Ret (9 h): 7.4%
- WBC (9 h): 104.8 x10_2/uL
- KIDNEY_L (9 h): 1 g
- KIDNEY_R (9 h): 1 g
- KIDNEY_TOTAL (9 h): 2 g
- LIVER (9 h): 9.3 g
- A/G (9 h): 1.5
- ALP (9 h): 1007 IU/L
- ALT (9 h): 30.6 IU/L
- AST (9 h): 64.2 IU/L
- BUN (9 h): 11.4 mg/dL
- CRE (9 h): 0.4 mg/dL
- Ca (9 h): 10.3 mg/dL
- Cl (9 h): 101.4 meq/L
- DBIL (9 h): 0.086 mg/dL
- GLC (9 h): 206.8 mg/dL
- IP (9 h): 10.5 mg/dL
- K (9 h): 4.2 meq/L
- LDH (9 h): 200 IU/L
- Na (9 h): 139 meq/L
- PL (9 h): 141.2 mg/dL
- RALB (9 h): 3.1 g/dL
- TBIL (9 h): 0.1 mg/dL
- TC (9 h): 73 mg/dL
- TG (9 h): 63.8 mg/dL
- TP (9 h): 5.2 g/dL
- gamma-GTP (9 h): 0.8 IU/L
- TERMINAL_BW (24 h): 231.4 g
- APTT (24 h): 18.2 s
- Bas (24 h): 0%
- Eos (24 h): 1%
- Fbg (24 h): 257.2 mg/dL
- Hb (24 h): 13 g/dL
- Ht (24 h): 38.3%
- Lym (24 h): 67.4%
- MCH (24 h): 20.9 pg
- MCHC (24 h): 34.1%
- MCV (24 h): 61.4 fL
- Mono (24 h): 4.4%
- Neu (24 h): 26.8%
- PT (24 h): 11.9 s
- Plat (24 h): 138.1 x10_4/uL
- RBC (24 h): 625 x10_4/ul
- Ret (24 h): 6.1%
- WBC (24 h): 103.6 x10_2/uL
- KIDNEY_L (24 h): 1 g
- KIDNEY_R (24 h): 1 g
- KIDNEY_TOTAL (24 h): 2 g
- LIVER (24 h): 11.5 g
- A/G (24 h): 1.4
- ALP (24 h): 963.8 IU/L
- ALT (24 h): 33.6 IU/L
- AST (24 h): 64 IU/L
- BUN (24 h): 12.6 mg/dL
- CRE (24 h): 0.4 mg/dL
- Ca (24 h): 10.4 mg/dL
- Cl (24 h): 102.4 meq/L
- DBIL (24 h): 0.052 mg/dL
- GLC (24 h): 203.8 mg/dL
- IP (24 h): 7.6 mg/dL
- K (24 h): 3.6 meq/L
- LDH (24 h): 209.8 IU/L
- Na (24 h): 141 meq/L
- PL (24 h): 148 mg/dL
- RALB (24 h): 3 g/dL
- TBIL (24 h): 0.1 mg/dL
- TC (24 h): 81.6 mg/dL
- TG (24 h): 83 mg/dL
- TP (24 h): 5.1 g/dL
- gamma-GTP (24 h): 0.8 IU/L
